Test results taken from PubChem BioAssay (NCI).
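At the GI50, growth is halved. TGI: total growth inhibition.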

Key:
Experiment in all cases: growth of human tumour cells (NCI), 384-well format
786-0 renal = tested on: 786-0 renal
A498 renal = tested on: A498 renal
A549 NSCLC = tested on: A549 NSCLC
ACHN renal = tested on: ACHN renal
BT-549 breast = tested on: BT-549 breast
CAKI-1 renal = tested on: CAKI-1 renal
CCRF-CEM leukemia = tested on: CCRF-CEM leukemia
COLO 205 colon = tested on: COLO 205 colon
DU-145 prostate = tested on: DU-145 prostate
EKVX NSCLC = tested on: EKVX NSCLC
HCC-2998 colon = tested on: HCC-2998 colon
HCT-116 colon = tested on: HCT-116 colon
HCT-15 colon = tested on: HCT-15 colon
HL-60(TB) leukemia = tested on: HL-60(TB) leukemia
HOP-62 NSCLC = tested on: HOP-62 NSCLC
HOP-92 NSCLC = tested on: HOP-92 NSCLC
HS 578T breast = tested on: HS 578T breast
HT29 colon = tested on: HT29 colon
IGROV1 ovarian = tested on: IGROV1 ovarian
KM12 colon = tested on: KM12 colon
LOX IMVI melanoma = tested on: LOX IMVI melanoma
M14 melanoma = tested on: M14 melanoma
MALME-3M melanoma = tested on: MALME-3M melanoma
MCF7 breast = tested on: MCF7 breast
MDA-MB-231 breast = tested on: MDA-MB-231 breast
MDA-MB-435 melanoma = tested on: MDA-MB-435 melanoma
MDA-MB-468 breast = tested on: MDA-MB-468 breast
MOLT-4 leukemia = tested on: MOLT-4 leukemia
NCI-H226 lung = tested on: NCI-H226 lung
NCI-H23 lung = tested on: NCI-H23 lung
NCI-H322M lung = tested on: NCI-H322M lung
NCI-H460 NSCLC = tested on: NCI-H460 NSCLC
NCI-H522 lung = tested on: NCI-H522 lung
NCI/ADR-RES ovarian = tested on: NCI/ADR-RES ovarian
OVCAR-3 ovarian = tested on: OVCAR-3 ovarian
OVCAR-4 ovarian = tested on: OVCAR-4 ovarian
OVCAR-5 ovarian = tested on: OVCAR-5 ovarian
OVCAR-8 ovarian = tested on: OVCAR-8 ovarian
PC-3 prostate = tested on: PC-3 prostate
RPMI-8226 leukemia = tested on: RPMI-8226 leukemia
RXF 393 renal = tested on: RXF 393 renal
SF-268 CNS = tested on: SF-268 CNS
SF-295 CNS = tested on: SF-295 CNS
SF-539 CNS = tested on: SF-539 CNS
SK-MEL-28 melanoma = tested on: SK-MEL-28 melanoma
SK-MEL-5 melanoma = tested on: SK-MEL-5 melanoma
SK-OV-3 ovarian = tested on: SK-OV-3 ovarian
SN12C renal = tested on: SN12C renal
SNB-19 CNS = tested on: SNB-19 CNS
SNB-75 CNS = tested on: SNB-75 CNS
SR leukemia = tested on: SR leukemia
SW-620 colon = tested on: SW-620 colon
T-47D breast = tested on: T-47D breast
TK-10 renal = tested on: TK-10 renal
U251 glioblastoma = tested on: U251 glioblastoma
UACC-257 melanoma = tested on: UACC-257 melanoma
UACC-62 melanoma = tested on: UACC-62 melanoma
UO-31 renal = tested on: UO-31 renal

For `CCN(c1cc(-c2ccc(CN3CCOCC3)cc2)cc(C(=O)NCc2c(C)cc(C)[nH]c2=O)c1C)C1CCOCC1`, the GI50 (786-0 renal) was greater than 85.4 µM, the TGI (786-0 renal) was greater than 100 µM and the GI50 (A498 renal) was greater than 81.8 µM. For the same compound, the TGI (A498 renal) was greater than 100 µM, the GI50 (A549 NSCLC) was greater than 76.9 µM and the TGI (A549 NSCLC) was greater than 100 µM. For the same compound, the GI50 (ACHN renal) was greater than 100 µM, the TGI (ACHN renal) was greater than 100 µM and the GI50 (BT-549 breast) was greater than 37.1 µM. The TGI (BT-549 breast) was greater than 63.9 µM, the GI50 (CAKI-1 renal) was greater than 69.4 µM and the TGI (CAKI-1 renal) was greater than 100 µM. It also gave a GI50 (CCRF-CEM leukemia) greater than 100 µM, a TGI (CCRF-CEM leukemia) greater than 100 µM and a GI50 (COLO 205 colon) greater than 100 µM. The TGI (COLO 205 colon) was greater than 100 µM, the GI50 (DU-145 prostate) was greater than 100 µM and the TGI (DU-145 prostate) was greater than 100 µM. The GI50 (EKVX NSCLC) was greater than 100 µM, the TGI (EKVX NSCLC) was greater than 100 µM and the GI50 (HCC-2998 colon) was greater than 100 µM. For the same compound, the TGI (HCC-2998 colon) was greater than 100 µM, the GI50 (HCT-116 colon) was greater than 77.3 µM and the TGI (HCT-116 colon) was greater than 100 µM. It also gave a GI50 (HCT-15 colon) of 98.3 µM, a TGI (HCT-15 colon) greater than 100 µM and a GI50 (HL-60(TB) leukemia) greater than 49.7 µM. It also gave a TGI (HL-60(TB) leukemia) greater than 85.8 µM, a GI50 (HOP-62 NSCLC) greater than 100 µM and a TGI (HOP-62 NSCLC) greater than 100 µM. For the same compound, the GI50 (HOP-92 NSCLC) was greater than 90.3 µM, the TGI (HOP-92 NSCLC) was greater than 100 µM and the GI50 (HS 578T breast) was greater than 100 µM. The TGI (HS 578T breast) was greater than 100 µM, the GI50 (HT29 colon) was greater than 100 µM and the TGI (HT29 colon) was greater than 100 µM. The GI50 (IGROV1 ovarian) was greater than 91.5 µM, the TGI (IGROV1 ovarian) was greater than 100 µM and the GI50 (KM12 colon) was greater than 100 µM. For the same compound, the TGI (KM12 colon) was greater than 100 µM, the GI50 (LOX IMVI melanoma) was greater than 51.5 µM and the TGI (LOX IMVI melanoma) was greater than 100 µM. It also gave a GI50 (M14 melanoma) greater than 100 µM, a TGI (M14 melanoma) greater than 100 µM and a GI50 (MALME-3M melanoma) greater than 100 µM. The TGI (MALME-3M melanoma) was greater than 100 µM, the GI50 (MCF7 breast) was greater than 100 µM and the TGI (MCF7 breast) was greater than 100 µM. For the same compound, the GI50 (MDA-MB-231 breast) was greater than 100 µM, the TGI (MDA-MB-231 breast) was greater than 100 µM and the GI50 (MDA-MB-435 melanoma) was greater than 100 µM. It also gave a TGI (MDA-MB-435 melanoma) greater than 100 µM, a GI50 (MDA-MB-468 breast) greater than 100 µM and a TGI (MDA-MB-468 breast) greater than 100 µM. The GI50 (MOLT-4 leukemia) was 68.4 µM, the TGI (MOLT-4 leukemia) was greater than 100 µM and the GI50 (NCI-H226 lung) was greater than 100 µM. The TGI (NCI-H226 lung) was greater than 100 µM, the GI50 (NCI-H23 lung) was greater than 100 µM and the TGI (NCI-H23 lung) was greater than 100 µM. It also gave a GI50 (NCI-H322M lung) greater than 100 µM, a TGI (NCI-H322M lung) greater than 100 µM and a GI50 (NCI-H460 NSCLC) greater than 100 µM. It also gave a TGI (NCI-H460 NSCLC) greater than 100 µM, a GI50 (NCI-H522 lung) greater than 100 µM and a TGI (NCI-H522 lung) greater than 100 µM. The GI50 (NCI/ADR-RES ovarian) was greater than 100 µM, the TGI (NCI/ADR-RES ovarian) was greater than 100 µM and the GI50 (OVCAR-3 ovarian) was greater than 100 µM. It also gave a TGI (OVCAR-3 ovarian) greater than 100 µM, a GI50 (OVCAR-4 ovarian) greater than 100 µM and a TGI (OVCAR-4 ovarian) greater than 100 µM. The GI50 (OVCAR-5 ovarian) was greater than 100 µM, the TGI (OVCAR-5 ovarian) was greater than 100 µM and the GI50 (OVCAR-8 ovarian) was greater than 100 µM. The TGI (OVCAR-8 ovarian) was greater than 100 µM, the GI50 (PC-3 prostate) was greater than 100 µM and the TGI (PC-3 prostate) was greater than 100 µM. It also gave a GI50 (RPMI-8226 leukemia) of 1390 nM, a TGI (RPMI-8226 leukemia) greater than 100 µM and a GI50 (RXF 393 renal) greater than 60.3 µM. For the same compound, the TGI (RXF 393 renal) was greater than 100 µM, the GI50 (SF-268 CNS) was greater than 100 µM and the TGI (SF-268 CNS) was greater than 100 µM. For the same compound, the GI50 (SF-295 CNS) was greater than 100 µM, the TGI (SF-295 CNS) was greater than 100 µM and the GI50 (SF-539 CNS) was greater than 100 µM. It also gave a TGI (SF-539 CNS) greater than 100 µM, a GI50 (SK-MEL-28 melanoma) greater than 100 µM and a TGI (SK-MEL-28 melanoma) greater than 100 µM. It also gave a GI50 (SK-MEL-5 melanoma) greater than 100 µM, a TGI (SK-MEL-5 melanoma) greater than 100 µM and a GI50 (SK-OV-3 ovarian) greater than 100 µM. The TGI (SK-OV-3 ovarian) was greater than 100 µM, the GI50 (SN12C renal) was greater than 100 µM and the TGI (SN12C renal) was greater than 100 µM. It also gave a GI50 (SNB-19 CNS) greater than 100 µM, a TGI (SNB-19 CNS) greater than 100 µM and a GI50 (SNB-75 CNS) greater than 100 µM. The TGI (SNB-75 CNS) was greater than 100 µM, the GI50 (SR leukemia) was greater than 75.7 µM and the TGI (SR leukemia) was greater than 100 µM. It also gave a GI50 (SW-620 colon) greater than 100 µM, a TGI (SW-620 colon) greater than 100 µM and a GI50 (T-47D breast) greater than 100 µM. The TGI (T-47D breast) was greater than 100 µM, the GI50 (TK-10 renal) was greater than 100 µM and the TGI (TK-10 renal) was greater than 100 µM. It also gave a GI50 (U251 glioblastoma) greater than 100 µM, a TGI (U251 glioblastoma) greater than 100 µM and a GI50 (UACC-257 melanoma) greater than 100 µM. It also gave a TGI (UACC-257 melanoma) greater than 100 µM, a GI50 (UACC-62 melanoma) greater than 100 µM and a TGI (UACC-62 melanoma) greater than 100 µM. The GI50 (UO-31 renal) was greater than 100 µM and the TGI (UO-31 renal) was greater than 100 µM.
